{"source": "paper PMC6920923", "about": "“Improving In Vivo Brain Delivery of Monoclonal Antibody Using Novel Cyclic Peptides” (Pharmaceutics, 2019)", "molecules": {"B1": {"name": "Cyclic ADTC5 (peptide)", "peptide": "Ac-CDTPPVC-NH2", "modifications": "disulfide 1-7", "SMILES": "CC(=O)N[C@H]1CSSC[C@@H](C(N)=O)NC(=O)[C@H](C(C)C)NC(=O)[C@@H]2CCCN2C(=O)[C@@H]2CCCN2C(=O)[C@H]([C@@H](C)O)NC(=O)[C@H](CC(=O)O)NC1=O"}, "B2": {"name": "Cyclic ADTHAV (peptide)", "peptide": "TPPVSHAV", "modifications": "cyclo(1,8): N-to-C terminal peptide bond"}}, "key": {"[1]": {"test_system": "brains of C57BL/6 mice", "experiment": "In vivo brain delivery of IRdye800CW-IgG mAb (NIRF quantification)", "details": "n = 3; for amount of IgG mAb in the brain (brain deposition): IgG mAb 21.6 nmol/kg with or without 13 µmol/kg peptide, i.v. tail vein, 15 min circulation, PBS/0.5% Tween-20 perfusion, NIRF (Odyssey CLx) of brain homogenate, mean ± SEM; for brain delivery of IgG mAb compared to control (IgG mAb alone), in words: IgG mAb 21.6 nmol/kg, peptide 13 µmol/kg i.v., ANOVA Student–Newman–Keuls", "method": "The activity of each peptide in enhancing BBB penetration was evaluated by delivering IRdye800CW donkey anti-goat IgG mAb in C57BL/6 mice; the amounts of mAb in the brain were determined using near infrared fluorescence (NIRF) imaging. Each group contains 3 mice per group (n = 3) with a mixture of male and female mice, selected randomly for each arm of the study. The injection solution was prepared by adding 600 µL PBS into 0.5 mg lyophilized IgG mAb; then, approximately 1.5 mg lyophilized peptide was added into the mixture yielding the injectable formulation. A 100 µL solution of a mixture containing IgG mAb (21.6 nmol/kg) along with 13 µmol/kg peptide was administered via tail vein. As a control, 100 µL of IgG mAb alone was administered via i.v. route. After the delivered molecules had been circulating for 15 min, the mice were sacrificed; then, a mixture of PBS with 0.5% Tween-20 was administered for cardiac perfusion to remove the blood and delivered molecules from the brain microvessels. The brain and other organs such as lung, heart, spleen, liver, and kidney were harvested and rinsed with PBS. The isolated organs were scanned with Odyssey® CLx for mAb quantification.\nThe brain deposition of IgG mAb was also quantified by NIRF imaging in brain homogenates. The isolated brains were mechanically homogenized in 2.0 mL of PBS. To make the standard solutions, IRDye800CW IgG mAb stock solution (70 µg/mL) was prepared; it was then diluted with various amounts of PBS to make six different mAb concentrations. To generate a calibration curve, the brain homogenate (200 µL) was aliquoted out to a 96-well plate. A total of 10 µL of each concentration of IgG mAb was added to three different wells of blank brain homogenates. The standard spiked homogenates were at a range of 10–200 ng/mL IgG mAb in brain homogenate. The wells were scanned using the Odyssey® CLx scanner, and the signal intensities vs. concentrations of mAb per gram of brain were used to generate a calibration curve.\nANOVA with Student–Newman–Keuls was used to compare the data for determining statistical significance for IgG mAb deposition in the brains. A p-value of less than 0.05 was used as a criterion for a significant difference in data comparison. Numeric results are presented as: mean ± SEM.\nA calibration curve was generated to determine the amount of IgG mAb in the brain by spiking blank brain homogenates with a concentration range from 10 to 200 ng/mL, and good linearity with R^2 ≥ 0.98 was achieved. […] The average amounts of IgG mAb in the brains of HAV6-treated and control animals were 3.4 ± 0.4 and 4.0 ± 0.5 pmol/g brain, respectively. In contrast, the average amounts of mAb in the brains of cyclic HAVN1- and HAVN2-treated mice were 8.6 ± 0.5 and 8.8 ± 0.6 pmol/g brain, respectively. The BBB modulatory activities of ADTC5, linear ADTHAV, and cyclic ADTHAV were also compared to the control (Figure 5). […] The average brain deposition of IgG mAb were 11.8 ± 0.5, 15.7 ± 0.8, and 13.3 ± 0.7 pmol/g brain for linear ADTHAV, cyclic ADTHAV, and ADTC5, respectively."}, "[2]": {"test_system": "MDCK cell monolayers", "details": "cited from earlier work", "method": "Previously, cyclic cHAVc1 (cyclo(1,8)Ac-CSHAVASC-NH2) and cHAVc3 (cyclo(1,6)Ac-CSHAVC-NH2) were prepared and compared to a linear HAV4 (Ac-SHAVAS-NH2) in modulating the intercellular junctions in vitro and in vivo [19]. […] An alanine scanning study was carried out to evaluate the role of each amino acid in HAV6 peptide, and the biological activity of each alanine mutant peptide was evaluated in lowering the TEER values of MDCK cell monolayers. Mutation of the Ser1 to Ala1 residue reduced the junction modulatory activity of the HAV6 mutant; ..."}, "[3]": {"biological_target": "T1, EC1 domain of E-cadherin (Homo sapiens, UniProt P12830)", "T1 sequence (P12830 155-262 limits assumed)": "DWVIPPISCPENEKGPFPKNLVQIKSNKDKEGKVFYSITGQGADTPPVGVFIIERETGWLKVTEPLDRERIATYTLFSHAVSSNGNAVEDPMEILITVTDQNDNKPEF", "experiment": "SPR binding to immobilized EC1 domain of E-cadherin", "details": "authors' separate study; for Kd: EC1 immobilized on streptavidin chip via Streptag I at N-terminus", "excerpt": "However, it was not yet clear whether the difference in activity was due to additive activity by the two sequences (Thr-Pro-Pro-Val and Ser-His-Ala-Val) or domination by only one sequence. As mentioned above, there was a trend that cyclic ADTHAV was slightly better than ADTC5. Because it is difficult to differentiate the activities of cyclic ADTHAV and ADTC5 in vivo, we compared their binding properties to the EC1 domain of E-cadherin using SPR experiments in a separate study. After optimizing the SPR running conditions, the EC1 protein was immobilized on the streptavidin chip via the Streptag I sequence on the N-terminus of the EC1 domain followed by injection of various peptide concentrations. […] In the future, the mechanism of cyclic ADTHAV binding to the EC1-domains of E-cadherin and VE-cadherin will be evaluated."}, "[4]": {"biological_target": "EC1 domain of E-cadherin", "experiment": "SPR; EC1 protein immobilised on a streptavidin chip via the Streptag I sequence on its N-terminus; various peptide concentrations injected"}}, "note": "Entries after “also recorded” stand apart in the source; their conditions may differ. Positions of bridges follow the written chain, without caps; N, C: chain ends. Residues, ends and D or L forms follow the SMILES beside them."}
{"molecule": "Ac-TPPVSHAV-NH2 [linear ADTHAV]", "values": [{"measurement": "amount of IgG mAb in the brain (brain deposition)", "setting": "[1]", "value": "11.8 ± 0.5", "unit": "pmol/g brain"}, {"measurement": "brain delivery of IgG mAb compared to control (IgG mAb alone), in words", "setting": "[1]; 15 min", "value": "significantly better than in the PBS control"}]}
{"molecule": "Ac-SHAVAS-NH2 [HAV4, earlier linear HAV peptide]", "values": [{"measurement": "junction modulatory activity of HAV6 analogues (alanine scan), in words", "setting": "[2]; lowering TEER of MDCK cell monolayers, ref [34]", "value": "enhanced modulatory activity of the peptide compared to HAV6"}]}
{"molecule": "cyclo(1,8)Ac-CSHAVASC-NH2 (disulfide) [cHAVc1, earlier cyclic HAV peptide]", "values": [{"measurement": "junction modulatory activity in MDCK cell monolayers, in words", "setting": "[2]; compared to HAV4 (and cHAVc1), ref [19]", "value": "same junction modulatory activity as HAV4 peptide"}]}
{"molecule": "CC(=O)N[C@H]1CSSC[C@@H](C(N)=O)NC(=O)[C@H](C(C)C)NC(=O)[C@@H]2CCCN2C(=O)[C@@H]2CCCN2C(=O)[C@H]([C@@H](C)O)NC(=O)[C@H](CC(=O)O)NC1=O", "note": "[ADTC5, Cyclo(1,7)Ac-CDTPPVC-NH2] (Ac-CDTPPVC-NH2; disulfide 1-7)", "values": [{"measurement": "Kd", "setting": "[3]", "value": 26.8, "unit": "µM"}]}
{"molecule": "Cyclo(1,5)SHAVS (head to tail) [HAVN2, N-to-C-termini cyclo-pentapeptide derived from HAV6]", "values": [{"measurement": "BBB modulatory activity / IgG mAb brain delivery compared to HAV6, in words", "setting": "[1]; 13 µmol/kg peptide, 15 min", "value": "significantly enhanced; also recorded: improvement in the BBB modulatory activity; also recorded: better BBB modulatory effects than their linear counterpart, HAV6"}, {"measurement": "BBB modulatory activity compared to HAVN1, in words", "setting": "[1]; 13 µmol/kg peptide, 15 min", "value": "removal of one serine residue did not influence the BBB modulatory activity of HAVN2 compared to HAVN1"}, {"measurement": "amount of IgG mAb in the brain (brain deposition)", "setting": "[1]", "value": "8.8 ± 0.6", "unit": "pmol/g brain"}, {"measurement": "brain delivery of IgG mAb compared to control (IgG mAb alone), in words", "setting": "[1]; 15 min", "value": "significantly enhanced"}]}
{"molecule": "Cyclo(1,6)SHAVSS (head to tail) [HAVN1, N-to-C-termini cyclo-hexapeptide derived from HAV6]", "values": [{"measurement": "BBB modulatory activity / IgG mAb brain delivery compared to HAV6, in words", "setting": "[1]; 13 µmol/kg peptide, 15 min", "value": "significantly enhanced; also recorded: improvement in the BBB modulatory activity; also recorded: better BBB modulatory effects than their linear counterpart, HAV6"}, {"measurement": "amount of IgG mAb in the brain (brain deposition)", "setting": "[1]", "value": "8.6 ± 0.5", "unit": "pmol/g brain"}, {"measurement": "brain delivery of IgG mAb compared to control (IgG mAb alone), in words", "setting": "[1]; 15 min", "value": "significantly enhanced"}]}
{"molecule": "CC(C)[C@@H]1NC(=O)[C@H](C)NC(=O)[C@H](Cc2c[nH]cn2)NC(=O)[C@H](CO)NC(=O)[C@H](C(C)C)NC(=O)[C@@H]2CCCN2C(=O)[C@@H]2CCCN2C(=O)[C@H]([C@@H](C)O)NC1=O", "note": "[cyclic ADTHAV, Cyclo(1,8)TPPVSHAV] (cyclo(TPPVSHAV))", "values": [{"measurement": "BBB modulatory activity to deliver IgG mAb compared to cyclic HAVN2, in words", "setting": "[1]; 13 µmol/kg peptide, 15 min", "value": "significantly better than that of cyclic HAVN2"}, {"measurement": "amount of IgG mAb in the brain (brain deposition)", "setting": "[1]", "value": "15.7 ± 0.8", "unit": "pmol/g brain"}, {"measurement": "brain delivery of IgG mAb compared to control (IgG mAb alone), in words", "setting": "[1]; 15 min", "value": "significantly better than in the PBS control"}, {"measurement": "Kd", "setting": "[3]", "value": 0.114, "unit": "µM"}, {"measurement": "binding affinity to EC1 domain of E-cadherin vs ADTC5, in words", "setting": "[3]", "value": "higher binding affinity"}, {"measurement": "binding affinity to EC1 domain of E-cadherin vs ADTC5, in words", "setting": "[3]; listed as Cyclic ADTHAV", "value": "better binding affinity to the EC1 domain of E-cadherin than does ADTC5"}]}
{"molecule": "B1", "values": [{"measurement": "Kd", "setting": "[4]", "value": 26.8, "unit": "µM"}]}
{"molecule": "B2", "values": [{"measurement": "Kd", "setting": "[4]", "value": 0.114, "unit": "µM"}]}
